# From US9670139B2, “Telomerase activating compounds and methods of use thereof” (BEN-GURION UNIVERSITY OF THE NEGEV RESEARCH AND DEVELOPMENT …, priority 2007, dated 2017)
# Numbered stars: 1 amine (or outer) side, 2 acyl side, 3 side chain; on linkers, the order of the positions; unused ones are H or OH. Bridge positions count the residues as written; N and C are the ends. Square brackets hold non-standard residues; d marks the D form. Peptide text beside a SMILES is read from it. I, II: the chains in the order shown. Actinocin(9to1) = Cc1c2oc3c(C)ccc(C(=O)[*:1])c3nc-2c(C(=O)[*:2])c(N)c1=O; NMeV = CN[C@H](C(=O)O)C(C)C; Sar = CNCC(=O)O
# Legend:
# [1] = test system: C. elegans; assay: Lifespan extension of nematodes (C. elegans); type: in vivo; conditions: for Lifespan % / Lifespan extension (%): 50 micromolar; for Lifespan % / Lifes pan ext. %: mean lifespan versus control; for Lifespan extension (%): Table 2, versus untreated controls; for Lifes pan ext. %: nematodes grown with compound at 50 micromolar
# Method: Nematodes (C. elegans) were administered tri-phenyl telomerase-activating compounds presented in the following tables, and telomerase activity and/or expression was measured in terms of nematode lifespan extension. Nematodes were grown with the activators at 50 micromolar concentration, and the mean, maximum and half-life for Compound 68 and Compound 77, two representative molecules, was measured versus that of the control (FIG. 8). Values represent mean lifespan.
# Survival of the C. elegans, a nematode that normally survives for 12-14 days, represents an acceptable model for studying life extension. Nematodes were administered tri-phenyl telomerase-activating compounds and their effect on the nematode lifespan extension was determined. Nematodes were grown with the activators at a concentration of 50 micromolar, and mean, maximum and half-life were measured in comparison with untreated controls. Lifespan increased by 13-43% (Table 2), and the median lifespan increased approximately 2-fold (from 12 days to 22 days, as shown in FIG. 8).
# [2] = test system: telomerase; assay: Activation of telomerase expression in rat endometrial cells after subcutaneous injection; type: in vivo; conditions: 6 mg/kg subcutaneously, 24 h
# Method: Female rats in diestrus (the stage at which the epithelial layer in the rat endometrium undergoes degradation) were injected subcutaneously with 6 mg/kg of Compound 68, or with a vehicle. The rats were sacrificed 24 h later and endometrial sections were prepared from the uterine horns of treated and untreated rats and analyzed by histological procedures and by immunohistochemical staining Endometrial slices were stained by hematoxylin-eosin. […] In addition, morphologically, the endometrial tissue resembled the structure of the proliferating stages (proestrus and estrus) (FIG. 9A,B). Activation of telomerase expression in the endometrial cells of treated rats was examined by immunohistochemistry with anti-telomerase antibody (FIG. 9C-F). […] In addition, telomerase activity was measured in nuclear extracts derived from the endometrium of the various treatment groups. […] In some embodiments of the invention, the data support a role for the treatment of endometriosis with the compounds of this invention.
# [3] = test system: embryos; assay: Prevention of camptothecin damage to embryo development in rats; type: in vivo, rat; conditions: embryos at days 14-15
# Method: The ability of compounds of the present invention to prevent the damaging effects of drugs on embryonic development was examined in rats. Female rats were treated with camptothecin (CPT) (5 mg/kg), an anti-cancer drug, and then injected with Compound 68 (6 mg/kg) or vehicle (0.1%). Embryos were removed at days 14-15 of pregnancy and examined for damage.
# [4] = biological target: telomerase (Homo sapiens, UniProt O14746); assay: Telomerase activity in RPE cells (quantitative telomerase detection kit, real time PCR); type: cell-based; set-up: endogenous in cells; host or cells: human retinal pigmented epithelial (RPE) cells; conditions: FIG. 7B
# Sequence of telomerase (Homo sapiens, UniProt O14746) (O14746 whole entry): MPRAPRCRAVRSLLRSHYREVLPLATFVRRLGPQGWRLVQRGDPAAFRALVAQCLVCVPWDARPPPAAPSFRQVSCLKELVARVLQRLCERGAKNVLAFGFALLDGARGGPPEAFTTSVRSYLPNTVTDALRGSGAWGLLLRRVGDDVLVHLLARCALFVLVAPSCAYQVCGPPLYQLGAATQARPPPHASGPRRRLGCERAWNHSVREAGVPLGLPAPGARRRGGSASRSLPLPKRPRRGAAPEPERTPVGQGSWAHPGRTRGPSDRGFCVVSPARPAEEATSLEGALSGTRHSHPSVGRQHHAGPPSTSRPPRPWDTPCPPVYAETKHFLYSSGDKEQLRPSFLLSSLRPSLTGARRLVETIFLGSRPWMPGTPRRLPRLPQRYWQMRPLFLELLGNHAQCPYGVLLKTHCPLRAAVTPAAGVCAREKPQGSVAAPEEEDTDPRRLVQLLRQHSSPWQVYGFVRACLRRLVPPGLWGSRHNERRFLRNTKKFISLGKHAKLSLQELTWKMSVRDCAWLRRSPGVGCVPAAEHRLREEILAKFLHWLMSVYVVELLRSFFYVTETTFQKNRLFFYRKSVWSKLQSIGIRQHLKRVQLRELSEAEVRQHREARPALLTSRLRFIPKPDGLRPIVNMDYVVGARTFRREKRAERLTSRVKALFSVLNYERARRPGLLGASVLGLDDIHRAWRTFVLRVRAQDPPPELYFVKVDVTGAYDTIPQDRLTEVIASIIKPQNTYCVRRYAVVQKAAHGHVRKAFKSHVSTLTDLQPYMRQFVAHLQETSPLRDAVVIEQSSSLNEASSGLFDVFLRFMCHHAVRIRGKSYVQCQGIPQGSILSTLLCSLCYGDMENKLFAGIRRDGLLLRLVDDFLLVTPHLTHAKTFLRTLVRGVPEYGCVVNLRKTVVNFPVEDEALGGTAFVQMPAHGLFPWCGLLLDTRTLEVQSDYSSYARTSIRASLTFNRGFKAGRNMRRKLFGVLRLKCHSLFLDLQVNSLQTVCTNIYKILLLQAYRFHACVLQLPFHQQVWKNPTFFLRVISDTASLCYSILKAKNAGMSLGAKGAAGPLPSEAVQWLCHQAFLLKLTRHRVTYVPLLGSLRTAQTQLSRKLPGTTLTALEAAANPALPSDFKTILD
# Excerpt: FIG. 7: A. The effect of compounds of the present invention on human retinal pigmented epithelial cells under oxidative stress. B. The effect of compounds on telomerase activity in RPE cells (measured by a quantitative telomerase detection kit-real time PCR).
# Chronic exposure of human retinal pigmented epithelial (RPE) cells to oxidative stress predisposes them to the development of age-related macular degeneration (AMD). Human RPE cells were exposed to oxidative stress by treatment with H2O2 (1 mM) for 24 hours, and H2O2 (0.5 mM) for another 24 hours. The cells were then treated daily for two days with the indicated compounds in the absence of H2O2. Increased cell growth was observed as a consequence of treatment with the compounds (FIG. 7A). Telomerase activity was enhanced in RPE cells treated with compounds 68 and 79 by 30- and 50-fold, respectively (FIG. 7B).
# [5] = test system: telomerase mRNA; assay: Northern blot of telomerase mRNA with hTERT probe; type: cell-based, human
# Method: Experiments were also performed to determine the effect of compounds of the present invention on the telomerase mRNA level (including the full and spliced variant telo-mRNAs). Cells were treated with a single dose of […] Compound 68 for various intervals (1-24 h). Total RNA extracts were prepared, and equal RNA concentrations were analyzed by northern blotting with a specific hTERT probe. […] The increased expression of telomerase was specific since no effect on GAPDH mRNA was observed (lower panel).
# [6] = test system: telomerase protein; assay: Western blot of telomerase protein level in treated glioblastoma cells; type: cell-based, human; conditions: 1 μM single dose
# Method: The effect of compounds of the present invention on the level of telomerase protein and of long-term treatment of a single dose of Compound 68 on telomerase was tested by exposing cells for various intervals (3-24 h) to 1 μM of the compound and detecting telomerase protein level by western blot analysis with anti-telomerase antibody. […] A time-dependent increase in telomerase was observed, with activation peaking at […] of treatment, and then gradually decreasing.
# [7] = Solubility noted at synthesis; type: physicochemical
compound,measurement,setting,value
CC(c1ccc(O)c(Br)c1)(c1ccc(O)c(Br)c1)c1ccc(O)c(Br)c1 [Compound 69],Lifespan %,[1]; table of scaffold drawing 36,−5%
O=P(c1ccc(O)cc1)(c1ccc(O)cc1)c1ccc(O)cc1 [Compound 61],Lifespan extension (%),[1],30%
same,Lifespan %,[1]; table of scaffold drawing 35,30%
CC(c1ccc(O)cc1)(c1ccc(O)cc1)c1ccc(-c2ccncc2)cc1 [Compound 53],Lifes pan ext. %,[1],13%
COc1c(I)cc(C(C)(c2cc(I)c(OC)c(I)c2)c2cc(I)c(OC)c(I)c2)cc1I [Compound 73],Lifespan %,[1]; table of scaffold drawing 36,−7%
COc1ccc(P(c2ccc(OC)cc2)c2ccc(OC)cc2)cc1 [Compound 62],Lifespan extension (%),[1],29%
same,Lifespan %,[1]; table of scaffold drawing 35,29%
CC(c1ccc(O)c([N+](=O)[O-])c1)(c1ccc(O)c([N+](=O)[O-])c1)c1ccc(O)c([N+](=O)[O-])c1 [Compound 71],Lifespan %,[1]; table of scaffold drawing 36,8%
Cc1ccc(C(C)(c2ccc(C)cc2)c2ccc(C)cc2)cc1 [Compound 22],Lifes pan ext. %,[1],21%
CC(c1ccc(O)cc1)(c1ccc(O)cc1)c1ccc(O)cc1 [Compound 1],Lifes pan ext. %,[1],30%
Cc1ccc(C(C)(c2ccccc2)c2ccccc2)cc1 [Compound 10],Lifes pan ext. %,[1],−1%
COc1c(Br)cc(C(C)(c2cc(Br)c(OC)c(Br)c2)c2cc(Br)c(OC)c(Br)c2)cc1Br [Compound 70],Lifespan %,[1]; table of scaffold drawing 36,41%
"CC(c1cc(Br)c(O)c(Br)c1)(c1cc(Br)c(O)c(Br)c1)c1cc(Br)c(O)c(Br)c1 [Compound 68, 1,1,1-tris(4-hydroxy-3,5-dibromo-phenyl)-ethane]",staining of telomerase in the endometrial tissue (immunohistochemistry),[2],significant increase
same,degradation of the endometrial epithelial layer,[2]; female rats in diestrus,prevented the degradation of the endometrial epithelial layer
same,embryo development after CPT plus compound,[3]; CPT 5 mg/kg then compound 6 mg/kg,developed normally
same,enhancement of telomerase activity in RPE cells,[4],30 fold
same,"level of telomerase full-length and splice variant mRNA, fold of control","[5]; single dose of 1 mM, 1-24 h",up to 4.5 fold
same,time of peak telomerase activation,[6],1 to 3 h
same,telomerase protein level,"[6]; 3-24 h, western blot",increased telomerase protein level
same,level of telomerase compared to vehicle-treated cells after 24 h,[6]; 24 h,only slightly higher
same,Lifespan extension (%),[1],13%
same,Lifespan %,[1]; table of scaffold drawing 36,13%
COc1ccc(C(C)(c2ccc(-c3cccc4ccccc34)cc2)c2ccc(C3c4ccccc4-c4ccccc43)cc2)cc1 (centres unmarked) [Compound 31],Lifes pan ext. %,[1],23%
"Cc1c2oc3c(C)ccc(C(=O)N[C@@H]4C(=O)N[C@H](C(C)C)C(=O)N5CCC[C@H]5C(=O)N(C)CC(=O)N(C)[C@@H](C(C)C)C(=O)O[C@@H]4C)c3nc-2c(C(=O)N[C@@H]2C(=O)N[C@H](C(C)C)C(=O)N3CCC[C@H]3C(=O)N(C)CC(=O)N(C)[C@@H](C(C)C)C(=O)O[C@@H]2C)c(N)c1=O [actinomycin D, reference compound] (I: T[dV]P[Sar][NMeV] / II: T[dV]P[Sar][NMeV]; ester I:1-I:C, II:1-II:C; linker I:N-II:N via Actinocin(9to1))",effect of addition during compound treatment on activation of telomerase expression,[5]; added for 3 h during treatment with Compound 68,abolished the activation of telomerase expression
COc1ccc(C(C)(c2ccc(OC)cc2)c2ccc(OC)cc2)cc1 [Compound 5],Lifes pan ext. %,[1],12%
COc1ccc(C(C)(c2ccc(OC)c([N+](=O)[O-])c2)c2ccc(OC)c([N+](=O)[O-])c2)cc1[N+](=O)[O-] [Compound 72],Lifespan %,[1]; table of scaffold drawing 36,4%
"CC[C@@]1(O)C(=O)OCc2c1cc1n(c2=O)Cc2cc3ccccc3nc2-1 [CPT, camptothecin, reference compound]",embryo development after CPT only,[3]; CPT 5 mg/kg plus vehicle,evidence of abnormal development
CC(c1ccccc1)(c1ccc(-c2cccc3ccccc23)cc1)c1ccc(C2c3ccccc3Oc3ccccc32)cc1 (centres unmarked) [Compound 33],Lifes pan ext. %,[1],−26%
c1ccc(P(c2ccccc2)c2ccccc2)cc1 [Compound 64],Lifespan %,[1]; table of scaffold drawing 35,19%
CN1CCN(Cc2cc(C(C)(c3cc(CN4CCN(C)CC4)c(O)c(CN4CCN(C)CC4)c3)c3cc(CN4CCN(C)CC4)c(O)c(CN4CCN(C)CC4)c3)cc(CN3CCN(C)CC3)c2O)CC1 [Compound 78],solubility in ethanol,[7]; ethanol,Soluble
same,solubility in water,[7]; water,very good solubility
same,Lifespan extension (%),[1],36%
same,Lifespan %,[1]; table of scaffold drawing 36,36%
Cc1ccc(P(c2ccc(C)cc2)c2ccc(C)cc2)cc1 [Compound 65],Lifespan %,[1]; table of scaffold drawing 35,42%
CC(c1ccccc1)(c1ccccc1)c1ccccc1 [Compound 49],Lifes pan ext. %,[1],16%
COc1ccc(C(c2ccc(-c3c[nH]c4ccccc34)cc2)c2ccc(-c3c[nH]c4ccccc34)cc2)cc1 [Compound 50],Lifes pan ext. %,[1],4%
COc1ccc(P(=O)(c2ccc(OC)cc2)c2ccc(OC)cc2)cc1 [Compound 63],Lifespan %,[1]; table of scaffold drawing 35,0%
Oc1ccc(P(c2ccc(O)cc2)c2ccc(O)cc2)cc1 [Compound 60],Lifespan %,[1]; table of scaffold drawing 35,−2%
CCOC(=O)COc1ccc(C(C)(c2ccc(OCC(=O)OCC)cc2)c2ccc(OCC(=O)OCC)cc2)cc1 [Compound 42],Lifes pan ext. %,[1],−7%
CC(c1ccc(O)cc1)(c1ccc(O)cc1)c1ccc(-c2cccnc2)cc1 [Compound 54],Lifes pan ext. %,[1],15%
Brc1ccc(N(c2ccc(Br)cc2)c2ccc(Br)cc2)cc1 [Compound 66],Lifespan %,[1]; table of scaffold drawing 35,19%
